This passage reports IC50 results from US7723523B2, “Tetrahydropyridothiophenes” (4SC AG, priority 2004, dated 2010).

Assay [1] deals with RKO (RKOp27) human colon adenocarcinoma cells. Put plainly: Alamar Blue cell viability assay, anti-proliferative/cytotoxic activity on proliferating RKOp27 cells. In kind it is cell-based. Conditions: absence of Ponasterone A, 72 hours incubation, read-out: IC50 RKO p27 proliferating. The method, then:
The anti-proliferative/cytotoxic activity of the compounds described herein, can be tested on subclones of RKO (RKOp27) human colon adenocarcinoma cells (Schmidt et al., Oncogene 19, 2423-2429; 2000) using the Alamar Blue cell viability assay (described in O'Brien et al. Eur J Biochem 267, 5421-5426, 2000). The compounds are dissolved as 20 mM solutions in dimethylsulfoxide (DMSO) and subsequently diluted in semi-logarithmic steps. DMSO dilutions are further diluted 1:100 into Dulbecco's modified Eagle's medium (DMEM) containing 10% fetal calf serum to a final concentration twice as much as the final concentration in the test. RKO subclones are seeded into 96 well flat bottom plates at a density of 4000 cells per well in a volume of 50 μl per well. 24 hours after seeding 50 μl each of the compound dilutions in DMEM are added into each well of the 96 well plate. Each compound dilution is tested as quadruplicates. Wells containing untreated control cells are filled with 50 μl DMEM containing 1% DMSO. The cells are then incubated with the substances for 72 hours at 37° C. in a humidified atmosphere containing 5% carbon dioxide. To determine the viability of the cells, 10 μl of an Alamar Blue solution (Biosource) are added and the fluorescence is measured at an extinction of 544 nm and an emission of 590 nm. For the calculation of the cell viability the emission value from untreated cells is set as 100% viability and the emission rates of treated cells are set in relation to the values of untreated cells. Viabilities are expressed as % values.
The corresponding IC50 values of the compounds for anti-proliferative/cytotoxic activity are determined from the concentration-effect curves.
Representative IC50 values for anti-proliferation/cytotoxicity determined in the aforementioned assay are described in the table A (1st column), in which the numbers of the compound correspond to the numbers of the examples.
(In general: Resazurin is reduced to fluorescent resorufin, in cell work by metabolically active cells.)

The test system of assay [2] is RKO colon adenocarcinoma cells (RKOp27) arrested by expression of ectopic p27Kip1. Put plainly: Alamar Blue cell viability assay on RKOp27 cells arrested by Ponasterone A-induced p27Kip1 (cell cycle specific mode of action). Type of assay: cell-based. As to conditions: Homo sapiens, RKOp27, 72 h, cells arrested by p27Kip1 induced with 10 μM Ponasterone A, 72 hours incubation, read-out: IC50 RKO p27 arrested. The method, then: To determine the cell cycle specific mode of action, subclones of RKO colon adenocarcinoma cells (RKOp27 or RKOp21 as described by Schmidt et al. in Oncogene 19, 2423-2429; 2000) are seeded into 96 well flat bottom plates at a density of 16000 cells per well in a volume of 50 μl per well in DMEM growth medium with 10% FCS containing 10 μM Ponasterone A. 24 hours after seeding 50 μl each of the compound dilutions in DMEM are added into each well of the 96 well plate. Each compound dilution is tested as quadruplicates. Wells containing untreated control cells are filled with 50 μl DMEM containing 1% DMSO. The cells are then incubated with the substances for 72 hours at 37° C. in a humidified atmosphere containing 5% carbon dioxide. To determine the viability of the cells, 10 μl of an Alamar Blue solution (Biosource) are added and the fluorescence is measured at an extinction of 544 nm and an emission of 590 nm. For the calculation of the cell viability the emission value from untreated cells is set as 100% viability and the emission rates of treated cells are set in relation to the values of untreated cells. Viabilities are expressed as % values. Viability is compared of proliferating cells grown in the absence of the inducer Ponasterone A, versus viability of cells arrested by the expression of ectopic p27Kip1 induced by Ponasterone A. The data of this experimental setting are summarized in table A (2nd column).

A word on the IC50: it is the concentration that gives 50% inhibition. For `CCOC(=O)N1CCc2c(sc(NC(=O)/C=C/c3ccccc3OCC)c2C#N)C1` [Example 62, 3-Cyano-2-[(E)-3-(2-ethoxy-phenyl)-allanoylamino]-4,7-dihydro-5H-thieno[2,3-c]pyridine-6-carboxylic acid ethyl ester], the IC50 in assay [1] is at most 2 µM; in assay [2], at least 100 µM.
As to `CCOC(=O)N1CCc2c(sc(NC(=O)/C=C/c3cccc(Cl)c3F)c2C#N)C1` [Example 61, 3-Cyano-2-[(E)-3-(3-chloro-2-fluoro-phenyl)-allanoylamino]-4,7-dihydro-5H-thieno[2,3-c]pyridine-6-carboxylic acid ethyl ester], the half-inhibitory concentration (IC50) in assay [1] was at most 2 µM; in assay [2], at least 100 µM.
Regarding `COC(=O)CCOC(=O)N1CCc2c(sc(NC(=O)/C=C/c3cccnc3)c2C#N)C1` [Example 162, 3-Cyano-2-((E)-3-pyridin-3-yl-allanoylamino)-4,7-dihydro-5H-thieno[2,3-c]pyridine-6-carboxylic acid 2-methoxycarbonyl-ethyl ester], the IC50 in assay [1] is at most 2 µM; in assay [2], at least 100 µM.
For `N#Cc1c(NC(=O)/C=C/c2ccccc2)sc2c1CCN(C(=O)CCCc1c[nH]c3ccccc13)C2` [Example 172, (E)-N-[3-Cyano-6-(4-1H-indol-3-yl-butanoyl)-4,5,6,7-tetrahydro-thieno[2,3-c]pyridin-2-yl]-3-phenyl-acrylamide] the same measures were at most 2 µM and at least 100 µM.
Regarding `CCOc1ccccc1/C=C/C(=O)Nc1sc2c(c1C#N)CCN(C(=O)OC(C)(C)C)C2` [Example 54, 3-Cyano-2-[(E)-3-(2-ethoxy-phenyl)-allanoylamino]-4,7-dihydro-5H-thieno[2,3-c]pyridine-6-carboxylic acid tert-butyl ester], the IC50 is at most 0.5 µM in assay [1] and at least 50 µM in assay [2].
As to `N#Cc1c(NC(=O)/C=C/c2cccnc2)sc2c1CCN(C(=O)Cc1ccccn1)C2` [Example 196, (E)-N-[3-Cyano-6-(2-pyridin-2-yl-ethanoyl)-4,5,6,7-tetrahydro-thieno[2,3-c]pyridin-2-yl]-3-pyridin-3-yl-acrylamide], the results for the IC50 in assay [1] and in assay [2] were at most 2 µM and at least 100 µM, respectively.
For the molecule `COc1ccccc1/C=C/C(=O)Nc1sc2c(c1C#N)CCN(C(=O)OCc1ccccn1)C2` [Example 138, 3-Cyano-2-[(E)-3-(2-methoxy-phenyl)-allanoylamino]-4,7-dihydro-5H-thieno[2,3-c]pyridine-6-carboxylic acid pyridin-2-ylmethyl ester], the figures for the IC50 in assay [1] and in assay [2] were at most 2 µM and at least 100 µM, respectively.
Turning to `CCOC(=O)N1CCc2c(sc(NC(=O)/C=C/c3cccc(F)c3)c2C#N)C1` [Example 21, 3-Cyano-2-[(E)-3-(3-fluoro-phenyl)-allanoylamino]-4,7-dihydro-5H-thieno[2,3-c]pyridine-6-carboxylic acid ethyl ester], the concentration for half-maximal inhibition (IC50) was at most 2 µM in assay [1] and over 100 µM in assay [2].
Take `COc1ccccc1/C=C/C(=O)Nc1sc2c(c1C#N)CCN(C(=O)CCc1cccnc1)C2` [Example 206, (E)-N-[3-Cyano-6-(3-pyridin-3-yl-propanoyl)-4,5,6,7-tetrahydro-thieno[2,3-c]pyridin-2-yl]-3-(2-methoxy-phenyl)-acrylamide]: the IC50 in assay [1] was at most 2 µM; in assay [2], at least 100 µM.
As for `CC(=O)N1CCc2c(sc(NC(=O)/C=C/c3ccccc3)c2C#N)C1` [Example 34, (E)-N-(6-Acetyl-3-cyano-4,5,6,7-tetrahydro-thieno[2,3-c]pyridin-2-yl)-3-phenyl-acrylamide], the IC50 was at most 2 µM in assay [1] and over 100 µM in assay [2].
Turning to `CCOC(=O)N1CCc2c(sc(NC(=O)/C=C/c3csc4ccccc34)c2C#N)C1` [Example 71, 2-((E)-3-Benzo[b]thiophen-3-yl-allanoylamino)-3-cyano-[4,7-d]hydro-5H-thieno[2,3-c]pyridine-6-carboxylic acid ethyl ester], the half-inhibitory concentration (IC50) in assay [1] is at most 2 µM; in assay [2], at least 100 µM.
Regarding `N#Cc1c(NC(=O)/C=C/c2ccccc2)sc2c1CCN(C(=O)OCCn1ccnc1)C2` [Example 136, 3-Cyano-2-((E)-3-phenyl-allanoylamino)-4,7-dihydro-5H-thieno[2,3-c]pyridine-6-carboxylic acid 2-imidazol-1-yl-ethyl ester], the results for the IC50 in assay [1] and in assay [2] were at most 2 µM and at least 100 µM, respectively.
`N#Cc1c(NC(=O)/C=C/c2ccccc2)sc2c1CCN(C(=O)n1ccnc1)C2` [Example 53, (E)-N-[3-Cyano-6-(1-imidazol-1-yl-methanoyl)-4,5,6,7-tetrahydro-thieno[2,3-c]pyridin-2-yl]-3-phenyl-acrylamide]: the 50% inhibitory concentration (IC50) in assay [1] was at most 2 µM; in assay [2], at least 100 µM.
For `N#Cc1c(NC(=O)/C=C/c2ccccc2)sc2c1CCN(C(=O)Cc1ccccn1)C2` [Example 174, (E)-N-[3-Cyano-6-(2-pyridin-2-yl-ethanoyl)-4,5,6,7-tetrahydro-thieno[2,3-c]pyridin-2-yl]-3-phenyl-acrylamide] the same measures were at most 2 µM and at least 100 µM.
As to `CCOC(=O)N1CCc2c(sc(NC(=O)/C=C/c3ccc4c(c3)OCO4)c2C#N)C1` [Example 30, 2-((E)-3-Benzo[1,3]dioxol-5-yl-allanoylamino)-3-cyano-4,7-dihydro-5H-thieno[2,3-c]pyridine-6-carboxylic acid ethyl ester], the IC50 is at most 2 µM in assay [1] and over 100 µM in assay [2].
The corresponding values for `N#Cc1c(NC(=O)/C=C/c2ccccc2)sc2c1CCN(C(=O)OCCCc1ccccn1)C2` [Example 124, 3-Cyano-2-((E)-3-phenyl-allanoylamino)-4,7-dihydro-5H-thieno[2,3-c]pyridin-6-carboxylic acid 3-pyridin-2-yl-propyl ester] are at most 0.5 µM and at least 50 µM.
The corresponding values for `CCOC(=O)N1CCc2c(sc(NC(=O)/C=C/c3cccc(OC)c3)c2C#N)C1` [Example 19, 3-Cyano-2-[(E)-3-(3-methoxy-phenyl)-allanoylamino]-4,7-dihydro-5H-thieno[2,3-c]pyridine-6-carboxylic acid ethyl ester] are at most 2 µM and over 100 µM.
Regarding `CC(=O)OCC(=O)N1CCc2c(sc(NC(=O)/C=C/c3ccccc3)c2C#N)C1` [Example 189, Acetic acid 2-[3-cyano-2-((E)-3-phenyl-allanoylamino)-4,7-dihydro-5H-thieno[2,3-c]pyridin-6-yl]-2-oxo-ethyl ester], the IC50 in assay [1] is at most 2 µM; in assay [2], at least 100 µM.
For the molecule `CC1(C)OCC(COC(=O)N2CCc3c(sc(NC(=O)/C=C/c4ccccc4)c3C#N)C2)O1` (stereo not shown) [Example 127, 3-Cyano-2-((E)-3-phenyl-allanoylamino)-4,7-dihydro-5H-thieno[2,3-c]pyridine-6-carboxylic acid 2,2-dimethyl-[1,3]dioxolan-4-ylmethyl ester], the IC50 was at most 2 µM in assay [1] and at least 100 µM in assay [2].
For `CCOC(=O)N1CCc2c(sc(NC(=O)/C=C/c3cccc(OC)c3OCC)c2C#N)C1` [Example 96, 3-Cyano-2-[(E)-3-(2-ethoxy-3-methoxy-phenyl)-allanoylamino]-4,7-dihydro-5H-thieno[2,3-c]pyridine-6-carboxylic acid ethyl ester] the same measures were at most 2 µM and at least 100 µM.
